“And” between values parts separate entries of the source, which are not always exact repeats. Equal values may be shown once.
Key:
L1210 leukemia = assay: L1210 screening (L1210 leukemia tumor model, survival); format: in vivo, Female CDF, mice; settings: for %ILS: 25% ILS or greater indicates activity, maximum 200%
Method: (§1) The platinum-diphosphonate complexes were tested for antitumor activity using both Sarcoma 180 ascites and L1210 leukemia tumor models (see Tables 3 and 4).
Female CDF, mice (16-22g) were injected with a suspension of 1x10^6 tumor cells in 0.5 mL of […] on day zero. On day one, the mice received the test compound in 0.5 mL of the chosen medium (usually water). Six mice were used for each test dose and six doses were normally given. Normal controls (six mice) received tumor on day zero and 0.5 mL of test medium on day one. Positive controls (six mice) were given tumor on day zero and 8 mg/kg cisplatin in 0.5 mL of […] on say one. All compound doses were adjusted for the actual average weight of the mice involved. Testing was terminated at 3 time the normal control mean life span. The percent increase in lifespan (%ILS) was calculated as follows: %ILS = [(mean life span (test)/mean life span (control))-1] X 100% A 25% ILS or greater indicates activity in this screen. The maximum possible ILS is 200%. The positive control must have an ILS > 25% for the test to be considered valid.

Sarcoma 180 ascites = assay: S180a screening (Sarcoma 180 ascites tumor model, survival); format: in vivo, Female CFW mice; settings: for %ILS: ILS > 50% indicates activity
Method: as §1
Female CFW mice (18-25g) were implanted with 2 x 10^6 cells ip on day zero. Compounds were administered in 0.5 mL water ip on say one. Groups of 6 mice were used for each test dose as well as controls as defined above. The test was run for twice the MST of the control group, with survivors counted as dying on that day. An ILS of > 50% indicates activity. The tumor line was maintained through weekly transfer of 4 x 10^6 cells in CFW mice.

[1] = system: L1210 murine tumor system; settings: Nepras, Masters Thesis 1979; cited from earlier work
[2] = L1210, dose 10.00 mg/kg day one
[3] = L1210, dose 20.00 mg/kg day one
[4] = L1210, dose 40.00 mg/kg day one
[5] = L1210, dose 80.00 mg/kg day one
[6] = L1210, dose 160.00 mg/kg day one
[7] = L1210, dose 320.00 mg/kg day one
[8] = L1210, survivors/mice, dose 10.00 mg/kg
[9] = L1210, survivors/mice, dose 20.00 mg/kg
[10] = L1210, survivors/mice, dose 40.00 mg/kg
[11] = L1210, survivors/mice, dose 80.00 mg/kg
[12] = L1210, survivors/mice, dose 160.00 mg/kg
[13] = L1210, survivors/mice, dose 320.00 mg/kg
[14] = survivors/mice, dose 10.00 mg/kg ip
[15] = survivors/mice, dose 20.00 mg/kg ip
[16] = survivors/mice, dose 40.00 mg/kg ip
[17] = survivors/mice, dose 80.00 mg/kg ip
[18] = survivors/mice, dose 320.00 mg/kg ip
[19] = survivors/mice, dose 160.00 mg/kg ip

Row | Molecule | %ILS (L1210 leukemia; [2]) [%] | %ILS (L1210 leukemia; [3]) [%] | %ILS (L1210 leukemia; [4]) [%] | %ILS (L1210 leukemia; [5]) [%] | %ILS (L1210 leukemia; [6]) [%] | %ILS (L1210 leukemia; [7]) [%] | SURV (L1210 leukemia; [8]) | SURV (L1210 leukemia; [9]) | SURV (L1210 leukemia; [10]) | SURV (L1210 leukemia; [11]) | SURV (L1210 leukemia; [12]) | SURV (L1210 leukemia; [13]) | %ILS (Sarcoma 180 ascites; dose 10.00 mg/kg ip day one) [%] | %ILS (Sarcoma 180 ascites; dose 320.00 mg/kg ip day one) [%] | SURV (Sarcoma 180 ascites; [14]) | SURV (Sarcoma 180 ascites; [15]) | SURV (Sarcoma 180 ascites; [16]) | SURV (Sarcoma 180 ascites; [17]) | SURV (Sarcoma 180 ascites; [18]) | further results
1 | CC(O)(P(=O)([O-])[O-])P(=O)([O-])[O-].NC1CCCCC1N.NC1CCCCC1N.[Pt+2].[Pt+2] [Example 4, [Pt2(R,R-dach)2(HEDP)]] | 8 | 3 | 24 | 28 | 40 | 72 | 0/ 6 | 0/ 6 | 0/ 6 | 0/ 6 | 0/ 6 | 0/ 6 | -7 | 75 | 0/ 6 | 0/ 6 | 0/ 6 | 0/ 6 | 4/ 6 | %ILS (Sarcoma 180 ascites; dose 20.00 mg/kg ip day one, 20 mg/kg): -10% and -4%; %ILS (Sarcoma 180 ascites; dose 160.00 mg/kg ip day one, 160 mg/kg): 95% and 77%; %ILS (Sarcoma 180 ascites; dose 256.00 mg/kg ip day one): 47%; SURV (Sarcoma 180 ascites; survivors/mice, dose 160.00 mg/kg ip, 160 mg/kg): 5/ 6 and 3/ 6; SURV (Sarcoma 180 ascites; survivors/mice, dose 256.00 mg/kg ip): 1/ 6
2 | CC(O)(P(=O)([O-])[O-])P(=O)([O-])[O-].NCCN.NCCN.[Pt+2].[Pt+2] [[Pt2(en)2(HEDP)]] | – | – | – | – | – | – | – | – | – | – | – | – | – | – | – | – | – | – | – | antitumor activity [1]: inactive
3 | NCCN.NCCN.O=P([O-])([O-])CP(=O)([O-])[O-].[Pt+2].[Pt+2] [[Pt2(en)2(MDP)]] | – | – | – | – | – | – | – | – | – | – | – | – | – | – | – | – | – | – | – | antitumor activity [1]: inactive
4 | N.N.[Cl][Pt][Cl] [cisplatin, reference compound] | – | – | – | – | – | – | – | – | – | – | – | – | – | – | – | – | – | – | – | POS CONT SURV (L1210 leukemia; L1210, survivors/mice, positive control of the respective experiment, 8 mg/kg cisplatin, 8 mg/kg): 3/ 6 and 4/ 6 and 0/ 6 and 1/ 6; POS CONT %ILS (Sarcoma 180 ascites; positive control of the respective experiment, 8 mg/kg cisplatin in saline, 8 mg/kg): 58% and 92% and 82% and 63%; POS CONT SURV (Sarcoma 180 ascites; survivors/mice, positive control of the respective experiment, 8 mg/kg cisplatin, 8 mg/kg): 2/ 5 and 4/ 6 and 3/ 6 and 1/ 6
5 | Na[Pt2(R,R-dach)2(PDP)] [Example 3] | 1 | 28 | 28 | 55 | 104 | 111 | 0/ 6 | 0/ 6 | 0/ 6 | 0/ 6 | 2/ 6 | 2/ 6 | – | – | – | – | – | – | – | –
6 | Na[Pt2(en)2(PDP)] [Example 2] | 0 | -3 | 0 | 20 | 23 | 11 | 0/ 6 | 0/ 6 | 0/ 6 | 0/ 6 | 0/ 6 | 0/ 6 | -4 | 49 | 0/ 6 | 0/ 6 | 0/ 6 | 1/ 6 | 1/ 6 | %ILS (Sarcoma 180 ascites; dose 20.00 mg/kg ip day one): 5%; %ILS (Sarcoma 180 ascites; dose 40.00 mg/kg ip day one): 6%; %ILS (Sarcoma 180 ascites; dose 80.00 mg/kg ip day one): 27%; %ILS (Sarcoma 180 ascites; dose 160.00 mg/kg ip day one): 48%; SURV (Sarcoma 180 ascites; [19]): 1/ 6
7 | [Pt2(en)2(PDP-D-glucosamine)] [Example 5] | -8 | -15 | 10 | 4 | 13 | 16 | – | 0/ 6 | 0/ 6 | 0/ 6 | 0/ 6 | 0/ 6 | 0 | 28 | 0/ 6 | 0/ 6 | 0/ 6 | 0/ 6 | 0/ 5 | %ILS (Sarcoma 180 ascites; dose 20.00 mg/kg ip day one): -3%; %ILS (Sarcoma 180 ascites; dose 40.00 mg/kg ip day one): -5%; %ILS (Sarcoma 180 ascites; dose 80.00 mg/kg ip day one): 0%; %ILS (Sarcoma 180 ascites; dose 160.00 mg/kg ip day one): 0%; SURV (Sarcoma 180 ascites; [19]): 0/ 6
8 | [Pt2(en)2(PDP-hydrazide)] [Example 7] | -14 | 21 | -18 | -14 | 20 | 0 | 0/ 6 | 0/ 6 | 0/ 6 | 0/ 6 | 0/ 6 | 0/ 6 | – | – | – | – | – | – | – | –
